# Where no end group is shown, it is not given here.
# Legend:
# M. luteus ATCC9341 = experiment: URDA, MEC; type: cell-based, Micrococcus luteus; conditions: M. luteus ATCC9341, Gram +, pH 6.6, 37 °C, triplicate averaged
# Experimental: (§1) The antimicrobial activity of the purified peptide was assessed as described previously. We tested the synthetic peptides against several Gram-positive bacteria including two Bacillus subtilis strains, Micrococcus luteus, Staphylococcus aureus, and Streptococcus iniae, Gram-negative bacteria including three Escherichia coli strains, Aeromonas hydrophila, Edwardsiella tarda, Pseudomonas aeruginosa, Vibrio parahemolyticus, and Salmonella enteric, as well as the yeast Candida albicans. All strains were grown overnight for 18 h in trypticase soy broth (TSB) or sabouraud dextrose broth (SDB) at the appropriate temperature (25 °C for A. hydrophila, E. tarda, P. aeruginosa, S. iniae, and V. parahemolyticus and 37 °C for the other strains). After an overnight incubation, the bacterial and C. albicans suspensions were diluted to a McFarland turbidity standard of 0.5 (Vitek Colorimeter #52-1210; Hach, Loveland, CO, USA) corresponding to ~10^8 CFU/mL for bacteria and ~10^6 CFU/mL for C. albicans. One-half milliliter of diluted bacterial or C. albicans suspension was added to 9.5 mL of underlay gel containing 5 × 10^6 CFU/mL or 5 × 10^4 CFU/mL in 10 mM phosphate buffer (PB; pH 6.6) with 0.03% TSB or 0.03% SDB and 1% Type I (low EEO) agarose. The purified peptide was serially diluted twofold in 5 μL of acidified water (0.01% HAc), and each dilution was added to 2.5-mm-diameter wells made in the 1-mm-thick underlay gels. After incubation for 3 h at either 25 °C (for A. hydrophila, E. tarda, P. aeruginosa, S. iniae, and V. parahemolyticus) or 37 °C (the other strains), the bacterial or yeast suspension was overlaid with 10 mL of double-strength overlay gel containing 6% TSB or 6% SDB with 10 mM PB (pH 6.6) in 1% agarose. Plates were incubated for an additional 18–24 h, after which the clearing zone diameters were measured. After subtracting the diameter of the well, the clearing zone diameter was expressed in units (0.1 mm = 1 U).
# (§2) All tested bacteria and yeast were prepared as described above. The minimal effective concentration (MEC, μg/mL) of the synthetic peptides was calculated as the x-intercept of a plot of units against the log10 of the peptide concentration. […] The antimicrobial assay was performed in triplicate and the results were averaged.
# B. subtilis KCTC1021 = experiment: Ultrasensitive radial diffusion assay (URDA), MEC; type: cell-based, Bacillus subtilis; conditions: B. subtilis KCTC1021, Gram +, 10 mM PB pH 6.6, 37 °C, x-intercept of units vs log10 concentration, triplicate averaged
# Experimental: as §1, §2
# E. tarda H-4 = experiment: URDA, MEC; type: cell-based, Edwardsiella tarda; conditions: fish pathogen E. tarda H-4, Gram −, pH 6.6, 25 °C, triplicate averaged
# Experimental: as §1, §2
# A. hydrophila KCTC2358 = experiment: URDA, MEC; type: cell-based, Aeromonas hydrophila; conditions: fish pathogen A. hydrophila KCTC2358, Gram −, pH 6.6, 25 °C, triplicate averaged
# Experimental: as §1, §2
# C. albicans KCTC7965 = experiment: URDA, MEC; type: cell-based, Candida albicans; conditions: C. albicans KCTC7965, yeast, pH 6.6, 37 °C, triplicate averaged
# Experimental: as §1, §2
# P. aeruginosa KCTC2004 = experiment: URDA, MEC; type: cell-based, Pseudomonas aeruginosa; conditions: P. aeruginosa KCTC2004, Gram −, pH 6.6, 25 °C, triplicate averaged
# Experimental: as §1, §2
# [1] = tested on: E. coli ML35p outer membrane; experiment: Outer membrane permeabilization, NPN uptake assay; type: cell-based, Escherichia coli; conditions: peptide 40 μg/mL, 3 min after addition, 25 °C, 5 mM HEPES pH 7.2; order 2A > 6A > 1N > 5A; triplicate
# Experimental: (§3) The outer membrane-permeabilizing activity of peptides was determined using the 1-N-phenylnapthylamine (NPN) uptake assay as described by Koo et al.. Briefly, an overnight culture of E. coli ML35p was transferred to fresh TSB medium and grown to A600 of 0.5–0.6. Cells were harvested, washed, and resuspended in the same volume of buffer (5 mM HEPES, pH 7.2, 5 mM KCN, and 5 mM glucose). Next, 20 μL of 0.5 mM NPN was added and mixed with 1 mL of cells, and peptide samples (40 μg/mL) were added after 3 min. The increase in fluorescence due to partitioning of NPN into the outer membrane was measured 3 min after the addition of peptides using a spectrofluorometer (LS 50B Fluorescence Spectrometer; PerkinElmer, Waltham, MA, USA) at an excitation wavelength of 350 nm and an emission wavelength of 420 nm at 25 °C. The extent of cytoplasmic membrane permeabilization was determined by measuring β-galactosidase activity in E. coli ML35p using O-nitrophenyl-β-D-galactopyranoside (ONPG), a nonmembrane-permeative chromogenic substrate. Mid-logarithmic phase E. coli cells were washed in 10 mM sodium phosphate buffer (NaPB), pH 7.4, and resuspended in the same buffer with 1.5 mM ONPG. The hydrolysis of ONPG to O-nitrophenol over time was monitored spectrophotometrically at 420 nm following the addition of peptide samples. Membrane permeabilization assays were performed in triplicate and the results were averaged.
# [2] = tested on: V. parahemolyticus KCCM41664; experiment: URDA, MEC; type: cell-based, Vibrio parahemolyticus; conditions: fish pathogen V. parahemolyticus KCCM41664, Gram −, pH 6.6, 25 °C, triplicate averaged
# Experimental: as §1, §2
# S. iniae FP5229 = experiment: URDA, MEC; type: cell-based, Streptococcus iniae; conditions: fish pathogen S. iniae FP5229, Gram +, pH 6.6, 25 °C, triplicate averaged
# Experimental: as §1, §2
# E. coli KCTC1116 = experiment: URDA, MEC; type: cell-based, Escherichia coli; conditions: E. coli KCTC1116, Gram −, pH 6.6, 37 °C, triplicate averaged
# Experimental: as §1, §2
# E. coli ML35p = experiment: URDA, MEC; type: cell-based, Escherichia coli; conditions: Gram −, pH 6.6, 37 °C, triplicate averaged
# Experimental: as §1, §2
# S. enterica KCTC2514 = experiment: URDA, MEC; type: cell-based, Salmonella enteric; conditions: S. enterica KCTC2514, Gram −, pH 6.6, 37 °C, triplicate averaged
# Experimental: as §1, §2
# S. aureus RM4220 = experiment: URDA, MEC; type: cell-based, Staphylococcus aureus; conditions: S. aureus RM4220, Gram +, pH 6.6, 37 °C, triplicate averaged
# Experimental: as §1, §2
# [3] = tested on: E. coli ML35p inner cytoplasmic membrane; experiment: Cytoplasmic membrane permeabilization, β-galactosidase/ONPG assay; type: cell-based, Escherichia coli; conditions: peptide 40 μg/mL, 10 mM NaPB pH 7.4, 1.5 mM ONPG; triplicate
# Experimental: as §3
# B. subtilis RM125 = experiment: URDA, MEC; type: cell-based, Bacillus subtilis; conditions: B. subtilis RM125, Gram +, pH 6.6, 37 °C, triplicate averaged
# Experimental: as §1, §2
substance,measurement,setting,value
RFPKLMMKLLV-NH2 [ofLBP 2A],Minimal Effectives Concentration,M. luteus ATCC9341,5.7 µg/mL
same,Minimal Effectives Concentration,B. subtilis KCTC1021,0.8 µg/mL
same,Minimal Effectives Concentration,E. tarda H-4,62.5 µg/mL
same,Minimal Effectives Concentration,A. hydrophila KCTC2358,3.6 µg/mL
same,Minimal Effectives Concentration,C. albicans KCTC7965,5.6 µg/mL
same,Minimal Effectives Concentration,P. aeruginosa KCTC2004,6.6 µg/mL
same,Outer membrane permeabilization ability (NPN fluorescence),[1],significant outer membrane permeabilization ability
same,Minimal Effectives Concentration,[2],1.7 µg/mL
same,Minimal Effectives Concentration,S. iniae FP5229,3.0 µg/mL
same,Minimal Effectives Concentration,E. coli KCTC1116,1.2 µg/mL
same,Minimal Effectives Concentration,E. coli ML35p,0.6 µg/mL
same,Minimal Effectives Concentration,S. enterica KCTC2514,1.2 µg/mL
same,Minimal Effectives Concentration,S. aureus RM4220,5.0 µg/mL
same,"Inner cytoplasmic membrane permeabilization ability (ONPG hydrolysis, 420 nm)",[3],strong permeabilization ability
same,Minimal Effectives Concentration,B. subtilis RM125,1.2 µg/mL

# From PMC4210897, “Antimicrobial Activity of Peptides Derived from Olive Flounder Lipopolysaccharide Binding Protein/Bactericidal Permeability-Increasing Protein (LBP/BPI)” (Marine Drugs, 2014)
